Laboratory results from ChEMBL document CHEMBL1772970, “Potent bivalent Smac mimetics: effect of the linker on binding to inhibitor of apoptosis proteins (IAPs) and anticancer activity” (J Med Chem, 2011).
Calls of active or inactive are those of the source. The calls are words filed in the database; no cut-off is given here.

How the values were obtained:
[1] = system: Mus musculus; assay: Toxicity in SCID mouse xenografted with human MDA-MB-231 cells assessed as weight loss at […], iv administered on day 2 and 9; format: organism-based; parameters: dose 7.5 mg/kg, route intravenous; details: in vivo
[2] = biological target: T1, E3 ubiquitin-protein ligase XIAP (Homo sapiens, UniProt P98170)
[3] = biological target: T1, E3 ubiquitin-protein ligase XIAP; assay: Competitive inhibition of His-tagged human XIAP BIR3 domain expressed in Escherichia coli BL21(DE3) after 2 to 3 hrs by fluorescence polarization assay
[4] = biological target: T1, E3 ubiquitin-protein ligase XIAP; assay: Competitive inhibition of human XIAP linker BIR2-BIR3 domain expressed in Escherichia coli BL21(DE3) cells by fluorescence polarization-based assay
[5] = system: MDA-MB-231; assay: cells; details: Homo sapiens
[6] = biological target: T1, E3 ubiquitin-protein ligase XIAP; assay: biochemical
[7] = system: MDA-MB-231; assay: Induction of apoptosis in human MDA-MB-231 cells assessed as PARP cleavage at 3 nM after 24 hrs by Western blotting; format: functional, cell-based
[8] = system: MDA-MB-231; assay: Induction of apoptosis in human MDA-MB-231 cells assessed as cIAP1 degradation at 10 nM after 24 hrs by Western blotting; format: functional, cell-based
[9] = system: MDA-MB-231; assay: Induction of apoptosis in human MDA-MB-231 cells assessed as caspase-3 processing at 10 nM after 24 hrs by Western blotting; format: functional, cell-based
[10] = system: MDA-MB-231; assay: Induction of apoptosis in human MDA-MB-231 cells assessed as cIAP2 degradation at 10 nM after 24 hrs by Western blotting; format: functional, cell-based
[11] = system: MDA-MB-231; assay: Induction of apoptosis in human MDA-MB-231 cells assessed as cIAP2 degradation at 1 nM after 24 hrs by Western blotting; format: functional, cell-based
[12] = system: MDA-MB-231; assay: Induction of apoptosis in human MDA-MB-231 cells assessed as cIAP1 degradation at 1 nM after 24 hrs by Western blotting; format: functional, cell-based
[13] = system: MDA-MB-231; assay: Induction of apoptosis in human MDA-MB-231 cells assessed as caspase-3 processing at 3 nM after 24 hrs by Western blotting; format: functional, cell-based
[14] = biological target: T2, Baculoviral IAP repeat-containing protein 2 (Homo sapiens, UniProt Q13490); assay: Competitive inhibition of human cIAP1BIR2-BIR3 domain after 2 to 3 hrs by fluorescence polarization assay
[15] = biological target: T2, Baculoviral IAP repeat-containing protein 2; assay: Binding affinity to human cIAP1 BIR2-BIR3 domain after 2 to 3 hrs by fluorescence polarization-based assay
[16] = system: MDA-MB-231; assay: Drug uptake in human MDA-MB-231 cells assessed as intracellular concentration at 300 nM after 3 hrs by LC-MS/MS; format: ADME, cell-based; details: mda-mb-231, 3 h, 0.3 µM
[17] = biological target: T2, Baculoviral IAP repeat-containing protein 2; assay: Competitive inhibition of human cIAP1 BIR3 domain after 2 to 3 hrs by fluorescence polarization assay
[18] = system: MDA-MB-231; assay: Drug uptake in human MDA-MB-231 cells assessed as intracellular concentration at 300 nM after 1 min by LC-MS/MS; format: ADME, cell-based; details: mda-mb-231, 1 min, 0.3 µM
[19] = biological target: T2, Baculoviral IAP repeat-containing protein 2; assay: Binding affinity to human cIAP1 BIR3 domain after 2 to 3 hrs by fluorescence polarization-based assay
[20] = system: Mus musculus; assay: Toxicity in SCID mouse xenografted with human MDA-MB-231 cells assessed as weight loss at 5 mg/kg, iv administered on day 1 to 5 and 8 to 12 post tumor implantation; format: organism-based; parameters: dose 5 mg/kg, route intravenous; details: in vivo
[21] = system: MDA-MB-231; assay: Antitumor activity against human MDA-MB-231 cells xenografted in SCID mouse assessed as tumor size at 5 mg/kg, iv administered on day 1 to 5 and 8 to 12 post tumor implantation measured on day 50 (reference value: 1136 mm'3); format: functional
[22] = system: MDA-MB-231; details: Homo sapiens, 5 mg/kg
[23] = system: MDA-MB-231; assay: Antitumor activity against human MDA-MB-231 cells xenografted in SCID mouse assessed as inhibition tumor growth intravenously administered on day 1 to 5 and 8 to 12 post tumor implantation; format: functional, cell-based
[24] = system: MDA-MB-231; assay: Induction of apoptosis in human MDA-MB-231 cells assessed as caspase-3 processing at 30 nM after 24 hrs by Western blotting; format: functional, cell-based
[25] = system: MDA-MB-231; assay: Induction of apoptosis in human MDA-MB-231 cells assessed as PARP cleavage at 30 nM after 24 hrs by Western blotting; format: functional, cell-based
[26] = system: MDA-MB-231; assay: Induction of apoptosis in human MDA-MB-231 cells assessed as cIAP2 degradation at 30 nM after 24 hrs by Western blotting; format: functional, cell-based

SMILES: CC(=O)O[C@@]12CO[C@@H]1C[C@H](O)[C@@]1(C)C(=O)[C@H](O)C3=C(C)[C@@H](OC(=O)[C@H](O)[C@@H](NC(=O)OC(C)(C)C)c4ccccc4)C[C@@](O)([C@@H](OC(=O)c4ccccc4)[C@H]21)C3(C)C.O.O.O [DOCETAXEL]
- Activity [1]: Toxic

SMILES: CC(=O)N[C@@H](Cc1c[nH]c2ccccc12)C(=O)N[C@H]1CCCC[C@H]2CC[C@@H](C(=O)N[C@@H](c3ccccc3)c3cn(CCCCc4ccc(CCCCn5cc([C@@H](NC(=O)[C@@H]6CC[C@@H]7CCCC[C@H](NC(=O)[C@H](Cc8c[nH]c9ccccc89)NC(C)=O)C(=O)N76)c6ccccc6)nn5)cc4)nn3)N2C1=O
- Ki [2]: > 10000 nM
- IC50 [3]: > 50000 nM
- IC50 [4]: > 50000 nM
- IC50 [5]: > 100000 nM
- Ki [6]: > 10000 nM

SMILES: CN[C@@H](C)C(=O)N[C@H]1CCCC[C@H]2CC[C@@H](C(=O)N[C@@H](c3ccccc3)c3cn(CCCc4ccc(CCCn5cc([C@@H](NC(=O)[C@@H]6CC[C@@H]7CCCC[C@H](NC(=O)[C@H](C)NC)C(=O)N76)c6ccccc6)nn5)cc4)nn3)N2C1=O
- Activity [7]: Active
- Activity [8]: Active
- Activity [9]: Active
- Activity [10]: Active

SMILES: CN[C@@H](C)C(=O)N[C@H]1CCCC[C@H]2CC[C@@H](C(=O)N[C@@H](c3ccccc3)c3cn(CCCCCCc4ccc(CCCCCCn5cc([C@@H](NC(=O)[C@@H]6CC[C@@H]7CCCC[C@H](NC(=O)[C@H](C)NC)C(=O)N76)c6ccccc6)nn5)cc4)nn3)N2C1=O
- Activity [7]: Active
- Activity [11]: Active
- Activity [12]: Active
- Activity [13]: Active

SMILES: CN[C@@H](C)C(=O)N[C@H]1CCCC[C@H]2CC[C@@H](C(=O)N[C@@H](c3ccccc3)c3cn(CCCCc4ccc(CCCCn5cc([C@@H](NC(=O)[C@@H]6CC[C@@H]7CCCC[C@H](NC(=O)[C@H](C)NC)C(=O)N76)c6ccccc6)nn5)cc4)nn3)N2C1=O
- Activity [7]: Active
- Activity [11]: Active
- Activity [12]: Active
- IC50 [14]: 5.7 nM
- IC50 [5]: 3.3 nM
- Ki [15]: 1.5 nM
- Drug uptake [16]: 541 nM
- IC50 [17]: 4.6 nM
- Drug uptake [18]: 106 nM
- Activity [13]: Active
- Ki [19]: < 1 nM

SMILES: CN[C@@H](C)C(=O)N[C@H]1CCCC[C@H]2CC[C@@H](C(=O)N[C@@H](c3ccccc3)c3cn(CCCCCOCCCCCn4cc([C@@H](NC(=O)[C@@H]5CC[C@@H]6CCCC[C@H](NC(=O)[C@H](C)NC)C(=O)N65)c5ccccc5)nn4)nn3)N2C1=O
- Activity [20]: Toxic
- Activity [21]: 269 mm3
- inhibition [22]: Active
- Activity [23]: Dose-dependent effect

SMILES: CN[C@@H](C)C(=O)N[C@H]1CCCC[C@H]2CC[C@@H](C(=O)N[C@@H](c3ccccc3)c3cn(CCOCCOCCOCCn4cc([C@@H](NC(=O)[C@@H]5CC[C@@H]6CCCC[C@H](NC(=O)[C@H](C)NC)C(=O)N65)c5ccccc5)nn4)nn3)N2C1=O
- Drug uptake [16]: 7.3 nM
- Drug uptake [18]: 6.7 nM

SMILES: CN[C@@H](C)C(=O)N[C@H]1CCCC[C@H]2CC[C@@H](C(=O)N[C@@H](c3ccccc3)c3cn(Cc4ccc(Cn5cc([C@@H](NC(=O)[C@@H]6CC[C@@H]7CCCC[C@H](NC(=O)[C@H](C)NC)C(=O)N76)c6ccccc6)nn5)cc4)nn3)N2C1=O
- Activity [24]: inactive
- Drug uptake [16]: 75.2 nM
- Drug uptake [18]: 21.2 nM
- Activity [25]: inactive

SMILES: CN[C@@H](C)C(=O)N[C@H]1CCCC[C@H]2CC[C@@H](C(=O)N[C@@H](c3ccccc3)c3cn(CCc4ccc(CCn5cc([C@@H](NC(=O)[C@@H]6CC[C@@H]7CCCC[C@H](NC(=O)[C@H](C)NC)C(=O)N76)c6ccccc6)nn5)cc4)nn3)N2C1=O
- Activity [24]: inactive
- Activity [26]: Active
- Drug uptake [16]: 67.7 nM
- Activity [25]: inactive
